# According to patent publication US20130065833A1, “ALKYLATED SP-B PEPTOID COMPOUNDS AND RELATED LUNG SURFACTANT COMPOSITIONS” (Northwestern University, priority 2010, published 2013):
# Assay: Pulsating bubble surfactometry (PBS), dynamic-mode cycling at 20 cpm
# Type: physicochemical
# Conditions: 37° C.; for γmax: time point not stated; for % comp (percent SA compression to reach 20 mN m^−1): PBS dynamic-mode, 20 cpm, 100*[(SAmax−SA20)/(SAmax)]
# Protocol: The maintenance of good surfactant activity during the dynamic changes in volume or film surface area at the a/l interface was assessed via bubble pulsation in PBS dynamic-mode. This method permits a simplified evaluation of in vitro dynamic film behavior. (Seurynck, S. L., Brown, N. J., Wu, C. W., Germino, K. W., Kohlmeir, E. K., Ingenito, E. P., Glucksberg, M. R., Barron, A. E., and Johnson, M. (2005) J. Appl. Physiol. 99, 624-633.) The γ-surface area (SA) data loops in FIG. 4B for each lipid-peptoid mixture are one representative pulsation cycle at 20 cycles per minute (cpm) after five minutes at 37° C., with bubble expansion in a clockwise loop direction.
# The absence of low-γ data in some loops results from the inability of the image analysis system to trace the bubble shape in this regime. The highly compressed state of the film, which enables it to reach low γ, often causes significant bubble shape deformation, eliminating the possibility of tracing the bubble to obtain SA or employing the ellipsoidal Laplace equation to calculate γ. […] Visual, real-time bubble inspection confirmed that significant bubble deformation occurred and that γ reached near-zero in these films.
# The lipids DPPC, POPG, and PA were individually dissolved in a chloroform/methanol solution (3/1 [v/v]) to a known concentration (˜2 or 4 mg mL^−1). Single-lipid solutions were then combined by volume at the ratio of DPPC:POPG:PA, 68:22:9 [wt:wt:wt] and to a known total lipid concentration (˜2 mg mL^−1). This well-characterized lipid formulation, the Tanaka Lipids (TL), is considered an adequate mimic of the non-protein (lipid) fraction of LS. The peptides and peptoids were individually dissolved in methanol from a lyophilized powder to a known concentration (1-2 mg mL^−1). For the PBS and LWSB/FM studies, the peptides and peptoids were added to the TL lipid solution at 2.16 mol % (˜10-12 absolute wt %, see Table 1), and the final solution was diluted to ˜1 mg lipid mL^−1. For comparative purposes, the inclusion of peptide/peptoid at 2.16 mol % corresponds to 10 wt % SP-B1-25 relative to the total lipid content (9.1 absolute wt %). Porcine SP-B was dissolved to a known concentration in chloroform/methanol and added to the TL solution at 0.72 mol %, corresponding to roughly 10 wt % of the monomer unit relative to the total lipid content (9.1 absolute wt %). For PBS and LWSB experiments, the standard deviation of the mean (a) was reported.
# A commercial pulsating bubble surfactometry (PBS) instrument (General Transco, Largo, FL), modified with a direct, real-time imaging system, which has been previously described and validated in detail, was utilized to obtain both static-mode and dynamic-mode data. Samples were dried to a pellet from chloroform/methanol 3/1 [v/v] using a DNA 120 speedvac (Thermo Electron, Holbrook, N.Y.). The pellet was resuspended in buffer (150 mM NaCl, 10 mM HEPES, 5 mM CaCl2, pH 6.9) to 1.0 mg lipid mL^−1, with a known final volume of 70 μL. Samples were mixed with a pipette 20 times, sonicated with a Fisher Model 60 probe sonicator for two 15-second spurts, and then mixed again 20 times to form a dispersed suspension. Samples were then loaded into a small plastic sample chamber (General Transco) using a modified leak-free methodology. […]
γmax (PBS dynamic-mode in a TL film) [mN m^−1],% comp (percent SA compression to reach 20 mN m^−1) [%],γmin (PBS dynamic-mode in a TL film),Substance
~35,12,,Noct2-Nspe6-NLys-Nspe2-NLys2-Nspe4-NLys-Nspe2 [peptoid 3]
46,~26,near-zero,Nspe8-NLys*-Nspe2-NLys2-Nspe4-NLys-Nspe2 [peptoid 1]
